# Activity calls are given as the source filed them. No cut-off for these calls is given here.
# Tests used:
# Carassius auratus = test: Toxicity in goldfish at 10 ug/ml; type: organism-based; conditions: in vivo
# Bacillus subtilis [1] = test: Antimicrobial activity against Bacillus subtilis at 25 ug/disk by paper disk antibiotic sensitivity assay; type: functional; conditions: read-out: IZ
# Bacillus subtilis [2] = test: Antimicrobial activity against Bacillus subtilis at 50 ug/disk by paper disk antibiotic sensitivity assay; type: functional; conditions: read-out: IZ
# Bacillus subtilis [3] = test: Antimicrobial activity against Bacillus subtilis at 100 ug/disk by paper disk antibiotic sensitivity assay; type: functional; conditions: read-out: IZ
# Staphylococcus aureus [4] = test: Antimicrobial activity against Staphylococcus aureus at 25 ug/disk by paper disk antibiotic sensitivity assay; type: functional; conditions: read-out: IZ
# Staphylococcus aureus [5] = test: Antimicrobial activity against Staphylococcus aureus at 50 ug/disk by paper disk antibiotic sensitivity assay; type: functional; conditions: read-out: IZ
# Staphylococcus aureus [6] = test: Antimicrobial activity against Staphylococcus aureus at 100 ug/disk by paper disk antibiotic sensitivity assay; type: functional; conditions: read-out: IZ
# Pseudomonas aeruginosa [7] = test: Antimicrobial activity against Pseudomonas aeruginosa at 100 ug/disk by paper disk antibiotic sensitivity assay; type: functional
# Escherichia coli [8] = test: Antimicrobial activity against Escherichia coli at 100 ug/disk by paper disk antibiotic sensitivity assay; type: functional, organism-based
# Serratia marcescens [9] = test: Antimicrobial activity against Serratia marcescens at 200 ug/disk by paper disk antibiotic sensitivity assay; type: functional; conditions: read-out: IZ
# Candida albicans [10] = test: Antimicrobial activity against Candida albicans at 100 ug/disk by paper disk antibiotic sensitivity assay; type: functional, organism-based
# KB = test: Cytotoxicity against human KB cells; type: functional; conditions: read-out: ID50 (the source's name)
# Serratia marcescens [11] = test: Antimicrobial activity against Serratia marcescens at 100 ug/disk by paper disk antibiotic sensitivity assay; type: functional
# Pseudomonas aeruginosa [12] = test: Antimicrobial activity against Pseudomonas aeruginosa at 200 ug/disk by paper disk antibiotic sensitivity assay; type: functional; conditions: read-out: IZ
# Escherichia coli [13] = test: Antimicrobial activity against Escherichia coli at 200 ug/disk by paper disk antibiotic sensitivity assay; type: functional; conditions: read-out: IZ
# Candida albicans [14] = test: Antimicrobial activity against Candida albicans at 200 ug/disk by paper disk antibiotic sensitivity assay; type: functional; conditions: read-out: IZ
SMILES,Activity (Carassius auratus),zone of inhibition at 25 µg/disc (Bacillus subtilis [1]) [mm],zone of inhibition at 50 µg/disc (Bacillus subtilis [2]) [mm],zone of inhibition at 100 µg/disc (Bacillus subtilis [3]) [mm],zone of inhibition at 25 µg/disc (Staphylococcus aureus [4]) [mm],zone of inhibition at 50 µg/disc (Staphylococcus aureus [5]) [mm],zone of inhibition at 100 µg/disc (Staphylococcus aureus [6]) [mm],inhibition zone (IZ) (Pseudomonas aeruginosa [7]),inhibition zone (IZ) (Escherichia coli [8]),zone of inhibition at 200 µg/disc (Serratia marcescens [9]) [mm],inhibition zone (IZ) (Candida albicans [10]),IC50 (KB) [µg/mL],inhibition zone (IZ) (Serratia marcescens [11]),zone of inhibition at 100 µg/disc (Pseudomonas aeruginosa [7]; read-out: IZ) [mm],zone of inhibition at 200 µg/disc (Pseudomonas aeruginosa [12]) [mm],zone of inhibition at 200 µg/disc (Escherichia coli [13]) [mm],zone of inhibition at 100 µg/disc (Serratia marcescens [11]; read-out: IZ) [mm],zone of inhibition at 200 µg/disc (Candida albicans [14]) [mm]
OCc1cc(Br)c(O)c(O)c1Cc1ccc(O)c(Br)c1 [AVRAINVILLEOL],Non-toxic,9,12,14,10,12,16,inactive,inactive,9,inactive,10,,,,,,
OCc1cc(O)c(O)c(Br)c1Cc1cc(O)c(O)c(Br)c1,Non-toxic,9,10,11,,,10,inactive,inactive,,inactive,,inactive,,,,,
OCc1cc(O)c(O)c(Br)c1,Non-toxic,8,10,12,8,11,13,,,13,,8.9,,8,9,10,9,8

# From ChEMBL document CHEMBL1150717, “5'-Hydroxyisoavrainvilleol, a new diphenylmethane derivative from the tropical green alga Avrainvillea nigricans” (J Nat Prod, 1987)
